From paper PMC10859961, “Ir(III) Half-Sandwich Photosensitizers with a π-Expansive Ligand for Efficient Anticancer Photodynamic Therapy” (Journal of Medicinal Chemistry, 2024)

Columns and labels:
[1] = Reactivity of 1w with n-Bu4NCl (1H NMR); format: physicochemical; details: 100 equivalents of n‐Bu4NCl
Procedure: A solution of 1w (3.0 mM) with 100 equiv of n-Bu4NCl (300 mM) in a DMSO-d6/D2O (9:1, v/v) mixture was monitored by NMR spectroscopy at room temperature and at 60 °C.

A549 cells [2] = assay: Cell internalization (iridium content by ICP-MS); format: cell-based, human; details: for iridium content in cells: 10 μM, 1 h
Procedure: To assess the cell internalization mechanism, 8 × 10^6 A549 cells were incubated with complex 6 at 10 μM for 1 h in the dark under different conditions: (i) at 37 °C (positive control cells), (ii) at 37 °C in the presence of CCCP (50 μM) (to inhibit mitochondrial ATP production) or (iii) at 4 °C (to inhibit cellular metabolism). The cells incubated with medium alone were included as negative control. Then, the cells were washed twice with PBS, detached with trypsin, and centrifuged to obtain the whole cell pellet. […] The iridium amount in the samples was then determined by inductively coupled plasma mass spectrometry (ICP-MS) analysis. To this end, the cell pellets were dissolved in 400 μL of 69% v/v nitric acid (PanReac Applichem) and heated in a water bath at 100 °C for 18 h. Samples were then allowed to cool and diluted with Milli-Q water to a final volume of 10 mL. […] Iridium content was measured on an ICP-MS Agilent 7500c instrument at the Serveis Tècnics de Recerca, Universitat de Girona. The solvent used for all ICP-MS experiments was Milli-Q water with 2% superpure grade HNO3. The iridium standard (high purity standards, 1000 μg/mL ± 2 μg/mL in 5% hydrochloric acid in low TOC water (<50 ppb)) was diluted with 2% HNO3 to 400 ppb. Iridium standards were freshly prepared in Milli-Q water with 2% HNO3 before each experiment. The concentrations used for the calibration curve were 0, 1, 2, 5, 10, and 20 ppb. The isotope detected was 193Ir and readings were done in triplicate. Rhodium was added as an internal standard at a concentration of 10 ppb to all samples. All of the experiments were performed by duplicate.

A549 cells [3] = assay: Subcellular distribution (cell fractionation, ICP-MS); format: cell-based, human; details: 10 μM, 4 h, 37 °C
Procedure: The intracellular distribution of complex 6 was explored by measuring the iridium content in different cellular compartments: nucleus, membrane/particulate (which includes cellular organelles and organelle’s membrane proteins), cytosol, and cytoskeleton. To this end, 8 × 10^6 A549 cells were incubated with 6 at 10 μM for 4 h in the dark at 37 °C. Then, the cells were washed twice with PBS, detached with trypsin, and centrifuged to obtain the whole cell pellet. The viability of the cells was assessed through Trypan blue staining, which confirmed that over 95% of the cells were viable. The different cell fractions were then isolated using the FractionPREP Cell Fractionation kit (BioVision) and the total iridium content in each fraction was measured by ICP-MS in two independent experiments, as described above.

| SMILES | chloride complex 1 formed back from 1w ([1]; 60 °C, 15 minutes) | chloride complex 1 formed back from 1w ([1]; room temperature, 4 days) | iridium content in cells (A549 cells [2]; 4 °C) | iridium content in cells (A549 cells [2]; 37 °C, no inhibition) | iridium content in cells (A549 cells [2]; CCCP pretreatment) | reduction of iridium content vs 37 °C (A549 cells [2]; at 4 °C or with CCCP pretreatment) | iridium in cytoskeletal fraction (A549 cells [3]) | iridium in cytosolic fraction (A549 cells [3]) | iridium in membrane/organelles fraction (A549 cells [3]) | iridium in nuclear fraction (A549 cells [3]) |
| --- | --- | --- | --- | --- | --- | --- | --- | --- | --- | --- |
| Cc1c(C)c(C)[c-](C)c1C.[Cl][Ir]1[c]2cccc3c4nc5ccccc5nc4c4ccc[n+]1c4c23 [complex 1, [(η^5-C5Me5)IrCl(pbpz)]] | approximately 15% | 2% |  |  |  |  |  |  |  |  |
| Cc1c(C)c(C)[c-](C)c1C.F[B-](F)(F)F.c1ccc2cc3nc4c5ccc[n+]6c5c5[c](cccc5c4nc3cc2c1)[Ir]6[n+]1ccn(CCN2CCCCC2)c1 [complex 6, [(η^5-C5Me5) Ir(Imepip)(pbpn)]BF4] |  |  | 18.0 ± 3 ng/10^6 cells | 87.6 ± 4 ng/10^6 cells | 17.6 ± 2 ng/10^6 cells | approximately 80% | 11.0 ± 4 ng Ir/10^6 cells | 4.6 ± 2 ng Ir/10^6 cells | 140.8 ± 20 ng Ir/10^6 cells | 7.1 ± 4 ng Ir/10^6 cells |
